In patent EP3300716A1, “BIOFILM FORMATION INHIBITOR” (Riken Vitamin Co., Ltd., priority 2015, dated 2016):
Entries after “also recorded” stand apart in the source; their conditions may differ.

Tests used:
[1] = tested on: Candida albicans NBRC 1594; test: Evaluation of biofilm formation inhibitory effect (96-well microplate static culture, crystal violet staining, O.D. 600); assay type: cell-based; conditions: class by 50% inhibitory concentration, threshold 20 ppm
Method: A potato dextrose agar (manufactured by Difco) was sterilized by autoclaving at 121°C for 15 minutes, added to a sterilized culture dish, and solidified to prepare an agar plate. A cryopreserved test fungus was spread on this agar plate and cultured at 30°C for 2 days. A yeast nitrogen base with 2% glucose (manufactured by Difco) was diluted 10-fold and sterilized by autoclaving at 121°C for 15 minutes. Twenty milliliters of this sterilized medium was placed into a conical flask with a baffle, and one loop of the agar-cultured test fungus was inoculated into the conical flask. Preculture was performed at 30°C with agitation at 150 rpm for 24 hours. Then, the fungal cells were collected by centrifugation (4700 rpm, 10 minutes, 20°C) . The collected fungal cells were washed with 20 mL of physiological saline and collected by centrifugation again (4700 rpm, 10 minutes, 20°C) . The collected fungal cells were resuspended in 10 mL of a Sabouraud-dextrose broth (liquid medium which contained 1.0% by mass of peptone and 4.0% by mass of glucose and was adjusted to a pH of 5.7 with 1 N hydrochloric acid, and hereinafter, it is called "SG medium"). This resuspension was diluted 20-fold with SG medium and used as a test fungal suspension. […] The test samples were separately dissolved in dimethyl sulfoxide (DMSO) to prepare test sample solutions. Two microliters of each test sample solution and 198 µL of the test fungal suspension were added to wells of a 96-well microplate (trade name: TC plate 96 well (Cell+); manufactured by Sarstedt) . The concentration of the test sample in the test sample solution was such that the concentration of the test sample in the combined total amount of the test sample solution and the test fungal suspension, i.e., the concentration of the test sample in the well would be 5 ppm, 25 ppm, 50 ppm or 100 ppm. Static culture was performed in the 96-well microplate containing the test sample solution and the test fungal suspension at 30°C for 2 days to allow biofilm formation to proceed in each well. […] After the static culture, the liquid in each well, including the test sample solution, the culture medium and the like, was removed, and the residue adherent to each well (cells, secretions, deposits, etc.) was regarded as a biofilm. To each well, 50 µL of a 0.01% by mass aqueous crystal violet solution (trade name, manufactured by Becton, Dickinson and Company) was added for staining of the biofilm. […] Then, 200 µL of ethanol was added to each well to elute the crystal violet bound to the biofilm, and the degree of formation of the biofilm adherent to the microplate was quantified. The quantification was performed by measuring the absorbance at 600 nm (O.D. 600) in each well with a microplate reader (model: SH-9000 Lab; manufactured by CORONA […] Co., Ltd.). The absorbance at 600 nm measured for the biofilm formed in the control well was used as the reference absorbance and assumed as 100% in terms of the degree of biofilm formation. The degree of biofilm formation for each test sample was calculated by comparison of the absorbance for the test sample with the reference absorbance. […] The graph of the logarithmic approximation curve was used to calculate the concentration of the test sample where the absorbance for the test sample is equal to 50% of the reference absorbance, that is, the degree of biofilm formation was 50% (hereinafter called "50% inhibitory concentration"). […]

[2] = tested on: Candida albicans NBRC 1594; test: Evaluation of fungistatic effect (streak culture on brain heart infusion agar plate, visual observation); assay type: cell-based; conditions: for Evaluation of fungistatic effect: 1000 ppm-treated plot, agar plate, 30°C for 1 day; for fungicidal: conclusion drawn from fungal growth at 1000 ppm
Method: Ten milliliters of a brain heart infusion agar (manufactured by Difco) was sterilized by autoclaving at 121°C for 15 minutes and then cooled down to 50°C. To this, 100 µL of a solution of the test sample in dimethyl sulfoxide (DMSO) was added, and the mixture was stirred until homogeneous. The homogeneous mixture was added to a sterilized culture dish to prepare an agar plate. The concentration of the test sample in the agar plate was 10 ppm, 100 ppm, 300 ppm or 1000 ppm. Next, one loop of a cryopreserved test fungus (Candida albicans NBRC 1594) was streaked on each agar plate and cultured at 30°C for 1 day. […] When no growth was observed along the streak line on the agar plate, the test sample was determined to be fungistatic at the indicated concentration.

Candida biofilm = conditions: Table 2 of Patent Literature 1; cited from earlier work

## CCCCCCCCCCCC(=O)OCC(O)COC(=O)CCCCCCCCCCC [Reference product 1, monoglyceryl dilaurate, reference compound]
[1]
  Evaluation: Poor in inhibition of biofilm formation (when the 50% inhibitory concentration of the test sample was more than 20 ppm, the test sample was regarded as poor in the inhibition of biofilm formation)
[2]
  Evaluation of fungistatic effect: not fungistatic; also recorded: Fungal growth was observed in a 1000 ppm-treated plot. No fungistatic effect
  fungicidal: not fungicidal

## CC(=O)N1CCN(c2ccc(OCC3COC(Cn4ccnc4)(c4ccc(Cl)cc4Cl)O3)cc2)CC1 (stereo not drawn) [Reference product 2, ketoconazole, reference compound]
[1]
  Evaluation: Poor in inhibition of biofilm formation (when the 50% inhibitory concentration of the test sample was more than 20 ppm, the test sample was regarded as poor in the inhibition of biofilm formation)

## diglyceryl dicaprylate [Present invention product 2]
[1]
  Evaluation: Excellent in inhibition of biofilm formation (When the 50% inhibitory concentration of the test sample was 20 ppm or less, the test sample was regarded as excellent in the inhibition of biofilm formation)
[2]
  Evaluation of fungistatic effect: Fungal growth was observed in a 1000 ppm-treated plot. No fungistatic effect.
  fungicidal: none of the present invention products 1, 2, 3 and 4 were fungicidal

## diglyceryl dicaprylate [Present invention product 3]
[1]
  Evaluation: Excellent in inhibition of biofilm formation (When the 50% inhibitory concentration of the test sample was 20 ppm or less, the test sample was regarded as excellent in the inhibition of biofilm formation)
[2]
  Evaluation of fungistatic effect: Fungal growth was observed in a 1000 ppm-treated plot. No fungistatic effect.
  fungicidal: none of the present invention products 1, 2, 3 and 4 were fungicidal

## diglyceryl monocaprylate
Candida biofilm
  effective against biofilm formation: poorly effective against biofilm formation

## glyceryl dilaurate
Candida biofilm
  effective against biofilm formation: less effective against biofilm formation than glyceryl monolaurate

## monoglyceryl dicaprylate [Present invention product 1]
[1]
  Evaluation: Excellent in inhibition of biofilm formation (When the 50% inhibitory concentration of the test sample was 20 ppm or less, the test sample was regarded as excellent in the inhibition of biofilm formation)
[2]
  Evaluation of fungistatic effect: Fungal growth was observed in a 1000 ppm-treated plot. No fungistatic effect.
  fungicidal: none of the present invention products 1, 2, 3 and 4 were fungicidal
